# Data reported in patent US20210087217A1, “NUCLEOTIDE HEMI-SULFATE SALT FOR THE TREATMENT OF HEPATITIS C VIRUS” (Atea Pharmaceuticals, Inc., priority 2017, published 2021).
# “Also recorded” adds a separate entry of the source. Structures can show the parent of a compound that is named as a salt. Where two headings read alike, the source gives them in different places.
# How the values were obtained:
# [1] = Storage of Compound 1 forms and amorphous salts at 25° C./60% RH for 14 days (HPLC, XRPD, observation); conditions: for Physical/chemical stability and appearance on storage: 25° C./60% RH, 14 days
# Protocol: This initial characterization was followed by storage at 25° C./60% relative humidity (RH) for 14 days with analysis by […] and XRPD after 7 and 14 days. FIG. 4A is the XRPD after 14 days at 25° C./60% (RH).
# The samples were then frozen with the solvent removed by lyophilization.
# The samples were then subjected to storage at 25° C./60% relative humidity (RH) for 14 days with analysis by HPLC and XRPD after 7 (FIG. 4B) and 14 days (FIG. 5A).
# [2] = Plasma profiles of Compound 2 metabolites in monkeys; assay type: in vivo, cynomolgus monkeys; conditions: cynomolgus monkey, plasma, po
# [3] = Single ascending dose study of Compound 2 in GT1-HCV infected patients (Part B): safety, tolerability, pharmacokinetic; assay type: in vivo, human; conditions: human; for Cmax / AUC / half-life / Tmax: in vivo; for Cmax / AUC / half-life / concentration at 24 h: GT1-HCV infected patients, mean±SD; for concentration at 24 h: plasma, oral, read-out: C24h
# Protocol: Subjects in Part B received a single dose of Compound 2 in the fasting state. Patients were confined to the clinic from Day −1 to Day 6.
# Part B was initiated after the safety (through Day 5) and plasma pharmacokinetic (through 24 h) data review from Cohort 3a in Part A. Available safety data (through Day 5) and pharmacokinetic data (through 24 h) was reviewed for the first cohort in Part B (Cohort 1b) before enrolling subsequent Part B cohorts. Subsequent Part B cohorts were only dosed following review of available safety and pharmacokinetic data from the respective doses in Part A as well as available safety (through Day 5) from the prior Part B cohorts.
# Patients infected with HCV were treatment-naïve, non-cirrhotic GT1-infected subjects with a viral load of ≥5 log10 IU/mL.
# (§1) Pharmacokinetic of Compound 1 and nucleoside metabolite 1-7 were measured following the single dose of Compound 2. […] Values are reported as mean±SD, except or Tmax where median (range) is reported.
# Plasma exposure of Compound 1 was dose-related while exposure of metabolite 1-7 was dose-proportional.
# [4] = Single ascending dose study of Compound 2 in healthy volunteers (Part A): safety, tolerability, pharmacokinetic; assay type: in vivo, human; conditions: both sexes, human, plasma, oral; for concentration at 24 h: read-out: C24h
# Protocol: Compound 2 was tested in a single ascending dose (SAD) study to measure its safety, tolerability, and pharmacokinetic in healthy subjects (Part A). Part A was a randomized, double-blind, placebo-controlled SAD study. Healthy subjects in Part A received a single dose of Compound 2 or placebo in the fasting state. Subjects were confined to the clinic from Day −1 to Day 6.
# Dosing in each cohort was staggered such that 2 subjects (1 active:1 placebo) were evaluated for 48 hours after dosing before the remainder of the cohort was dosed. Each cohort received Compound 2 in ascending order. Dosing of sequential cohorts occurred based on review of available safety data (through Day 5) and plasma pharmacokinetic data (through 24 h) of the prior cohort.
# As pharmacokinetic and safety data emerged from prior cohorts, doses evaluated in Cohorts 3a-4a were adjusted by increments no more than 100 mg.
# Healthy volunteers in the Part A portion of the study were male and female subjects between the ages of 18 and 65. Active and placebo recipients were pooled within each Part A cohort to preserve the study blind.
# as §1
# [5] = Plasma profiles of Compound 2 metabolites in rats; conditions: male, Sprague-Dawley, rat, plasma, po, 500 mg/kg
# Protocol: The results for a single 500 mg/kg dose in rats is shown in FIG. 17 and the results for a single 30, 100, or 300 mg/kg dose in monkeys is shown in FIG. 18.
# [6] = 100 mg, Compound 2 100 mg, based on 24-hr profile
# [7] = 300 mg, Compound 2 300 mg (first 300 mg line)
# [8] = 300 mg, Compound 2 300 mg (first 300 mg line), based on 24-hr profile
# [9] = 300 mg, Compound 2 300 mg (second 300 mg line)
compound,measurement,setting,value
"CNc1nc(N)nc2c1ncn2[C@@H]1O[C@H](CO[P@@](=O)(N[C@@H](C)C(=O)OC(C)C)Oc2ccccc2)[C@@H](O)[C@@]1(C)F [Compound 3, mono-sulfate salt of isopropyl((S)-(((2R,3R,4R,5R)-5-(2-amino-6-(methylamino)-9H-purin-9-yl)-4-fluoro-3-hydroxy-4-methyltetrahydrofuran-2-yl)methoxy)(phenoxy)phosphoryl)-L-alaninate]",Physical/chemical stability and appearance on storage,[1],unstable; also recorded: not physically stable
CNc1nc(N)nc2c1ncn2[C@@H]1O[C@H](CO[P@@](=O)(N[C@@H](C)C(=O)OC(C)C)Oc2ccccc2)[C@@H](O)[C@@]1(C)F [Compound 5],Hygroscopicity,[1]; listed as HCl salt,more hydroscopic than the hemisulfate salt
"C[C@@]1(F)[C@H](O)[C@@H](CO)O[C@H]1n1cnc2c(=O)[nH]c(N)nc21 [Metabolite 1-7, 2-amino-9-((2R,3R,4R,5R)-3-fluoro-4-hydroxy-5-(hydroxymethyl)-3-methyltetrahydrofuran-2-yl)-1,9-dihydro-6H-purin-6-one]",AUC(0-t),[2]; 30 mg/kg,1620 ng·h/mL
same,Cmax,[2]; 30 mg/kg,42.5 ng/mL
same,Tmax,[2]; 30 mg/kg,12 to 24 h
same,half-life,[2]; 30 mg/kg,11.5 h
same,AUC(0-t),[2]; 100 mg/kg,3030 ng·h/mL
same,Cmax,[2]; 100 mg/kg,131 ng/mL
same,half-life,[2]; 100 mg/kg,15 h
same,AUC(0-t),[2]; 300 mg/kg,3660 ng·h/mL
same,Cmax,[2]; 300 mg/kg,93.6 ng/mL
same,Tmax,[2]; 300 mg/kg,4 to 24 h
same,half-life,[2]; 300 mg/kg,18.8 h
same,Cmax,"[3]; 100 mg, Compound 2 100 mg",50.2 ± 15.4 ng/mL
same,AUC,[3]; [6],538 ± 103 ng·h/mL
same,half-life,[3]; [6],8.4 ± 4.3 h
same,Tmax,"[3]; 100 mg, Tmax",6 h
same,Tmax,[3]; 300 mg,4.0 (3.0-6.0) h
same,Cmax,[3]; [7],96.9 ± 38.9 ng/mL
same,AUC,[3]; [8],1130 ± 273 ng·h/mL
same,half-life,[3]; [8],8.1 ± 2.4 h
same,AUC,[3]; [9],1420 ± 221 ng·h/mL
same,Cmax,[3]; [9],123 ± 16.6 ng/mL
same,Tmax,"[3]; 300 mg, Tmax",6 h
same,AUC,"[3]; 400 mg, Compound 2 400 mg",2130 ± 120 ng·h/mL
same,Cmax,"[3]; 400 mg, Compound 2 400 mg",160 ± 36.7 ng/mL
same,half-life,"[3]; 400 mg, Compound 2 400 mg",11.6 ± 1.21 h
same,AUC,"[3]; 600 mg, Compound 2 600 mg",2180 ± 116 ng·h/mL
same,Cmax,"[3]; 600 mg, Compound 2 600 mg",198 ± 19.3 ng/mL
same,concentration at 24 h,"[3]; 100 mg, Compound 2 100 mg",3.6 ± 0.4 ng/mL
same,concentration at 24 h,[3]; [7],10.9 ± 3.51 ng/mL
same,concentration at 24 h,[3]; [9],18 ± 8.83 ng/mL
same,concentration at 24 h,"[3]; 400 mg, Compound 2 400 mg",22.5 ± 3.29 ng/mL
same,concentration at 24 h,"[3]; 600 mg, Compound 2 600 mg",25.8 ± 4.08 ng/mL
same,AUC,[4]; 50 mg,285 ± 69.4 ng·h/mL
same,Cmax,[4]; 50 mg,27.9 ± 5.62 ng/mL
same,Tmax,[4]; 50 mg,3.5 h
same,half-life,[4]; 50 mg,7.07 ± 4.59 h
same,concentration at 24 h,[4]; 50 mg,2.28 ± 0.95 ng/mL
same,AUC,[4]; 100 mg,663 ± 242 ng·h/mL
same,Cmax,[4]; 100 mg,56.6 ± 14 ng/mL
same,half-life,[4]; 100 mg,17.7 ± 14.7 h
same,concentration at 24 h,[4]; 100 mg,4.45 ± 1.87 ng/mL
same,AUC,[4]; 200 mg,1520 ± 497 ng·h/mL
same,Cmax,[4]; 200 mg,111 ± 38.8 ng/mL
same,half-life,[4]; 200 mg,15.9 ± 7.95 h
same,concentration at 24 h,[4]; 200 mg,13.7 ± 5.09 ng/mL
same,AUC,[4]; 400 mg,2340 ± 598 ng·h/mL
same,Cmax,[4]; 400 mg,153 ± 49.4 ng/mL
same,half-life,[4]; 400 mg,15.6 ± 6.37 h
same,concentration at 24 h,[4]; 400 mg,23.5 ± 6.31 ng/mL
same,AUC(0-t),[5],9640 ng·h/mL
same,Cmax,[5],541 ng/mL
same,Tmax,[5],6 to 8 h
same,half-life,[5],15.3 h
CNc1nc(N)nc2c1ncn2[C@@H]1O[C@H](CO[P@@](=O)(N[C@@H](C)C(=O)OC(C)C)Oc2ccccc2)[C@@H](O)[C@@]1(C)F [Sample 1-1],HPLC purity,[1]; 0 days at 25° C./60% RH,98.6
same,Observation,[1]; 0 days at 25° C./60% RH,White solid
same,Physical/chemical stability and appearance on storage,[1],stable
same,HPLC purity,[1]; 7 days at 25° C./60% RH,98.7
same,Observation,[1]; 7 days at 25° C./60% RH,White solid
same,HPLC purity,[1]; 14 days at 25° C./60% RH,98.5
same,Observation,[1]; 14 days at 25° C./60% RH,White solid
CNc1nc(N)nc2c1ncn2[C@@H]1O[C@H](CO[P@@](=O)(N[C@@H](C)C(=O)OC(C)C)Oc2ccccc2)[C@@H](O)[C@@]1(C)F [Sample 1-2],HPLC purity,[1]; 0 days at 25° C./60% RH,99.1
same,Observation,[1]; 0 days at 25° C./60% RH,White solid
same,Physical/chemical stability and appearance on storage,[1],stable
same,HPLC purity,[1]; 7 days at 25° C./60% RH,99.2
same,Observation,[1]; 7 days at 25° C./60% RH,White solid
same,HPLC purity,[1]; 14 days at 25° C./60% RH,99.0
same,Observation,[1]; 14 days at 25° C./60% RH,White solid
CNc1nc(N)nc2c1ncn2[C@@H]1O[C@H](CO[P@@](=O)(N[C@@H](C)C(=O)OC(C)C)Oc2ccccc2)[C@@H](O)[C@@]1(C)F [Sample 1-3],HPLC purity,[1]; 0 days at 25° C./60% RH,99.7
same,Observation,[1]; 0 days at 25° C./60% RH,White solid
same,HPLC purity,[1]; 7 days at 25° C./60% RH,99.6
same,Observation,[1]; 7 days at 25° C./60% RH,White solid
same,HPLC purity,[1]; 14 days at 25° C./60% RH,99.4
same,Observation,[1]; 14 days at 25° C./60% RH,White solid
CNc1nc(N)nc2c1ncn2C1OC(COP(=O)(NC(C)C(=O)OC(C)C)Oc2ccccc2)C(O)C1(C)F.Cl (stereo not drawn) [Sample 1-4],Hygroscopicity,[1],hygroscopic
same,HPLC purity,[1]; 0 days at 25° C./60% RH,98.7
same,Observation,[1]; 0 days at 25° C./60% RH,White solid
same,Physical/chemical stability and appearance on storage,[1],physically and chemically stable
same,HPLC purity,[1]; 7 days at 25° C./60% RH,98.8
same,Observation,[1]; 7 days at 25° C./60% RH,White solid
same,HPLC purity,[1]; 14 days at 25° C./60% RH,98.6
same,Observation,[1]; 14 days at 25° C./60% RH,White solid
CNc1nc(N)nc2c1ncn2C1OC(COP(=O)(NC(C)C(=O)OC(C)C)Oc2ccccc2)C(O)C1(C)F.O=S(=O)(O)O (stereo not drawn) [Sample 1-5],HPLC purity,[1]; 0 days at 25° C./60% RH,98.4
same,Observation,[1]; 0 days at 25° C./60% RH,White solid
same,Physical/chemical stability and appearance on storage,[1],physically unstable
same,HPLC purity,[1]; 7 days at 25° C./60% RH,55.7
same,Observation,[1]; 7 days at 25° C./60% RH,Sticky white
same,Observation,[1]; 14 days at 25° C./60% RH,Sticky gum
CNc1nc(N)nc2c1ncn2C1OC(COP(=O)(NC(C)C(=O)OC(C)C)Oc2ccccc2)C(O)C1(C)F.CNc1nc(N)nc2c1ncn2C1OC(COP(=O)(NC(C)C(=O)OC(C)C)Oc2ccccc2)C(O)C1(C)F.O=S(=O)(O)O (stereo not drawn) [Sample 1-9],HPLC purity,[1]; 0 days at 25° C./60% RH,98.7
same,Observation,[1]; 0 days at 25° C./60% RH,White solid
same,Physical/chemical stability and appearance on storage,[1],physically and chemically stable
same,HPLC purity,[1]; 7 days at 25° C./60% RH,98.1
same,Observation,[1]; 7 days at 25° C./60% RH,White solid
same,HPLC purity,[1]; 14 days at 25° C./60% RH,96.4
same,Observation,[1]; 14 days at 25° C./60% RH,White solid
